According to patent US20030232862A1 (priority 2002, published 2003):
pIC50: −log10 of the molar value. Where two headings read alike, the source gives them in different places.

Assays:
[1] = tested on: Peak B's (from SW480, HTB-26, and LnCAP); test: FPLC-isolated Peak B PDE activity from three neoplastic cell lines; assay type: biochemical
Description: The novel Peak B was also isolated from two other neoplastic cell lines, a breast cancer cell line, HTB-26, and a prostate cancer cell line, LnCAP, by a procedure similar to the one above used to isolate it from SW480. The protocol was modified in several respects. To provide even greater reproducibility to allow comparison of different cell lines, a Pharmacia AKTA FPLC was used to control sample loading and elution on an 18 mL DEAE TrisAcryl M column. SW840 was run by this same procedure multiple times to provide a reference of Peak B. 200-400 million cells of SW480 were used for the profiles. 70 million cells of LnCAP were used for a profile (see FIGS. 22 and 23), and in a separate experiment 32 million cells of HTB-26 were used for a profile (see FIGS. 20 and 21). After re-suspending cells in homogenization buffer, samples were manually homogenized. FPLC buffer A was 8 mM TRIS-acetate, 5 mM Mg acetate, 0.1 mM EDTA, pH 7.5 and buffer B was 8 mM TRIS-acetate, 5 mM Mg acetate, 0.1 mM EDTA, 1 M Na acetate, pH 7.5. Supernatants were loaded onto the column at 1 mL per minute, followed by a wash with 60 mL buffer A at 1 mL per minute. A gradient was run from 0-15% buffer B in 60 mL, 15-50% buffer B in 60 mL, and 50-100% buffer B in 16 mL. During the gradient 1.5 mL fractions were collected.

HT-29 cells = test: Growth inhibition of HT-29 cells (SRB assay; trypan blue counting in time course); assay type: cell-based, human; details: for Growth Inhibition: Table 9 qualitative profile
[2] = target: T1, cGMP binding sites of GST-cGB-PDE5 fusion protein (Homo sapiens, UniProt O76074); test: cGMP binding assay with GST-cGB-PDE5 fusion protein; details: for competition with cGMP binding at high concentration: 100 μM, cGMP 2 μM
T1 construct: made in house; host or cells: E. coli BL21 (DE3)

[3] = tested on: premalignant lesions in mouse mammary gland organ culture; test: Mammary gland organ culture model; for mammary gland organ culture: key: −: Not active; +: Slightly active; + +: Moderately active; + + +: Strongly active; + + + +: Highly active; assay type: cell-based; details: for inhibition of formation of premalignant lesions: FIG. 17
Description: Test compounds identified by the above methods can be tested for antineoplastic activity by their ability to inhibit the incidence of pre-neoplastic lesions in a mammary gland organ culture system. This mouse mammary gland organ culture technique has been successfully used by other investigators to study the effects of known antineoplastic agents such as certain NSAIDs, retinoids, tamoxifen, selenium, and certain natural products, and is useful for validation of the screening method of the present invention.
For example, female BALB/c mice can be treated with a combination of estradiol and progesterone daily, in order to prime the glands to be responsive to hormones in vitro. The animals are sacrificed, and thoracic mammary glands are excised aseptically and incubated for ten days in growth media supplemented with insulin, prolactin, hydrocortisone, and aldosterone. DMBA (7,12-dimethylbenz(a)anthracene) is added to medium to induce the formation of premalignant lesions. Fully developed glands are then deprived of prolactin, hydrocortisone, and aldosterone, resulting in the regression of the glands but not the pre-malignant lesions.
The test compound is dissolved in DMSO and added to the culture media for the duration of the culture period. At the end of the culture period, the glands are fixed in 10% formalin, stained with alum carmine, and mounted on glass slides. The incidence of forming mammary lesions is the ratio of the glands with mammary lesions to […]. The incidence of mammary lesions in test compound treated glands is compared with that of the untreated glands.
The extent of the area occupied by the mammary lesions can be quantitated by projecting an image of the gland onto a digitation pad. The area covered by the gland is traced on the pad and considered as 100% of the area. The space covered by each of the non-regressed structures is also outlined on the digitization pad and quantitated by the computer.
Mammary gland organ culture experiment were performed as previously described (Mehta and Moon, Cancer Research, 46: 5832-5835, 1986).

[4] = target: cGMP PDE purified from human colon HT-29 cultured tumor cells (Homo sapiens, UniProt O76074); test: cGMP PDE inhibition assay; assay type: biochemical; details: for PDE Inhibition: Table 9 qualitative profile
[5] = tested on: HT-29 colon adenocarcinoma cells; test: Apoptosis by DNA fragmentation assay in HT-29 cells; assay type: cell-based, human; details: Table 9 qualitative profile; note: key: −: Not active; +: Slightly active; + +: Moderately active; + + +: Strongly active; + + + +: Highly active
Cyclooxygenase (COX) = target: T2, Cyclooxygenase (COX) (Ovis aries, UniProt P05979); test: COX inhibition assay, single dose screen (Table 2); assay type: biochemical; details: for COX Inhibition: Table 9 qualitative profile
T2 sequence (P05979 25-600): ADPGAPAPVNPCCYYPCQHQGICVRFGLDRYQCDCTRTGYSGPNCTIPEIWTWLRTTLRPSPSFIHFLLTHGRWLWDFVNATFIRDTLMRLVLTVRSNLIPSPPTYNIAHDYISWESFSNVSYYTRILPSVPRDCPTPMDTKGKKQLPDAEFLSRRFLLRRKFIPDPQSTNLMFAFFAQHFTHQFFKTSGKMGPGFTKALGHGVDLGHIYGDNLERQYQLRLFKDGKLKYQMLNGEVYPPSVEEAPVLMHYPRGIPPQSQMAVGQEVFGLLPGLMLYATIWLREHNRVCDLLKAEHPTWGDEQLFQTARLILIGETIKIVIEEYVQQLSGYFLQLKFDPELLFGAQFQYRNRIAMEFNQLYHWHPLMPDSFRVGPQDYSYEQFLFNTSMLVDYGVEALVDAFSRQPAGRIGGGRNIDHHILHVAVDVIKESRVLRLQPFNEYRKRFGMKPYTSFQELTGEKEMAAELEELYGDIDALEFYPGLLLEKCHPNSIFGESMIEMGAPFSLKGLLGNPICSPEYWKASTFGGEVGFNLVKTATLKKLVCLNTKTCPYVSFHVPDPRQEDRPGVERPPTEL

[6] = target: T3, PDE Peak A (PDE5) from SW480 cells (Homo sapiens, UniProt O76074); test: cGMP hydrolysis by PDE Peak A (PDE5) isolated from SW480 cells; assay type: biochemical
T3 construct: To isolate the novel phosphodiesterase from SW480, approximately four hundred million SW480 cells were grown to confluence; endogenous in cells; host or cells: SW480 colon cancer cells; 105,000 g supernatant, DEAE-Trisacryl M fraction

[7] = tested on: SW-480 colon adenocarcinoma cells; test: Apoptosis fold induction protocol (DNA fragmentation, Table 4); details: 100 μM; cell line not given

Question: With `O=C([O-])C1CCN(c2nc(NCc3ccc4c(c3)OCO4)c3cc(Cl)ccc3n2)CC1.[Na+]` [Example E4021, reference compound] as the compound, how does the “sensitivity of Peak B cGMP PDE activity” value ([1]; 100 nM, 0.25 μM cGMP) read?
Answer: The value was “resistant”.

Question: What about the “% Inhibition at 100 μM (growth)” value (HT-29 cells) of the same compound?
Answer: Its value is under 50%.

Question: For `CCCCOC1C2OP(=O)(O)OCC2OC1n1cnc2c(N)ncnc21` (centres unmarked) [2′-O-butyl-cAMP], which “competition with cGMP in binding of GST-cGB-PDE5” value (“competition with cGMP in binding” below) ([2]; 3H-cGMP 2 μM) is on record?
Answer: Its value is “did not compete”.

Question: Which “competition with cGMP in binding” value ([2]; 3H-cGMP 2 μM) does the source give for `Nc1ccn([C@@H]2O[C@@H]3COP(=O)(O)O[C@H]3[C@H]2O)c(=O)n1` [cCMP] here?
Answer: The value was “did not compete”.

Question: How did the “competition with cGMP in binding” value [2] turn out when `Nc1ncnc2c1ncn2[C@@H]1O[C@@H]2COP(=O)(O)O[C@H]2[C@H]1O` [Cyclic AMP] was run?
Answer: The value was “did not compete”.

Question: How did the “inhibition of cAMP PDE activity in Peak B fractions” value [1] turn out when `COc1ccc(C2CNC(=O)C2)cc1OC1CCCC1` (centres unmarked) [Rolipram] was run?
Answer: The value was “inhibited most of the cAMP PDE activity”.

Question: With `CC1=C(CC(=O)O)c2cc(F)ccc2/C1=C\c1ccc([S+](C)[O-])cc1` (centres unmarked) [sulindac, reference compound] as the compound, how does the “inhibition of formation of premalignant lesions” value [3] read?
Answer: Its value is “effectively inhibit”.

Question: With `Nc1nc2c(nc(Br)n2[C@@H]2O[C@@H]3COP(=O)(O)O[C@H]3[C@H]2O)c(=O)[nH]1` [Example 8-bromo-cGMP] as the compound, how does the “competition with cGMP binding at high concentration” value [2] read?
Answer: The value was “partially compete”.

Question: Which results are given for “ribo-(E)-1-Triazolo-[2′,3′:1″,3″]-1-(butan-1′,4′-olido)-[3′,4′:1,2]-6-fluoro-2-methyl-3-(p-methylsulfonylbenzylidene)-indan [G]”?
Answer: Growth Inhibition (HT-29 cells): + +; PDE Inhibition [4]: −; Mammary Gland Organ Culture ([3]; Table 9 qualitative profile): + + +; Apoptosis [5]: + +

Question: Which results are given for `CC1=C(CC(=O)O)c2cc(F)ccc2/C1=C\c1ccc(Cl)cc1` [Compound C, (Z)-5-Fluoro-2-methyl-1-(p-chlorobenzylidene)-3-acetic acid]?
Answer: % Inhibition at 100 μM (growth) (HT-29 cells): 80%; % Inhibition at 10 μM (cGMP PDE) [4]: <25%

Question: Which results are given for `Clc1cccc(Nc2nnc(-c3ccccc3)c3ccccc23)c1` [MY5445, 1-(3-chloroanilino)-4-phenyphthalazine, reference compound]?
Answer: Growth Inhibition (HT-29 cells): + + +; % Inhibition at 100 μM (cyclooxygenase) (Cyclooxygenase (COX)): 94%; COX Inhibition (Cyclooxygenase (COX)): + + +; Apoptosis [5]: + + +

Question: “5-fluoro-2-methyl-1-(p-methylsulfinylbenzylidene)-3-indenylacetic acid [Sulindac sulfide, reference compound]” was tested. Which “% Inhibition at 10 μM (cGMP PDE)” value [4] did it give?
Answer: Its value is 97%.

Question: And the “PDE Inhibition” value [4]?
Answer: Its value is “+ + +”.

Question: And the pIC50 ([4]; read-out: IC50 for inhibition of cGMP PDE)?
Answer: The pIC50 was 4.77.

Question: And the “% Inhibition at 100 μM (cyclooxygenase)” value (Cyclooxygenase (COX))?
Answer: The value was 97%.

Question: And the “COX Inhibition” value (Cyclooxygenase (COX))?
Answer: Its value is “+ + + +”.

Question: What about the “inhibition of formation of premalignant lesions” value [3] of the same compound?
Answer: The value was “inactive”.

Question: And the Apoptosis [5]?
Answer: The Apoptosis was “+ + +”.

Question: What about the “competitive (with cGMP) inhibition/binding, Peak A” value [6] of the same compound?
Answer: Its value is “competitively inhibited”.

Question: With `CCCCOC1C2OP(=O)(O)OCC2OC1n1cnc2c(=O)[nH]c(N)nc21` (centres unmarked) [2′-O-butyl-cGMP] as the compound, how does the “competition with cGMP in binding” value ([2]; 3H-cGMP 2 μM) read?
Answer: Its value is “did not compete”.

Question: How did the “Growth Inhibition” value (HT-29 cells) turn out when `CC1=C(CC(=O)N(C2CCCCC2)C2CCCCC2)c2cc(F)ccc2/C1=C\c1ccc(S(C)(=O)=O)cc1` [F, (Z)-5-Fluoro-2-methyl-1-(p-methylsulfonylbenzylidene)-3-indenylacetamide, N,N′-dicyclohexyl] was run?
Answer: Its value is “+ +”.

Question: And the “PDE Inhibition” value [4]?
Answer: Its value is “−”.

Question: `O=c1[nH]cnc2c1ncn2[C@@H]1O[C@@H]2COP(=O)(O)O[C@H]2[C@H]1O` [Cyclic IMP] was tested. Which “competition with cGMP binding at high concentration” value [2] did it give?
Answer: Its value is “partially compete”.

Question: For `O=c1ccn([C@@H]2O[C@@H]3COP(=O)(O)O[C@H]3[C@H]2O)c(=O)[nH]1` [cUMP], which “competition with cGMP in binding” value ([2]; 3H-cGMP 2 μM) is on record?
Answer: The value was “did not compete”.

Question: What does the source list for “rac-(E)-1-(butan-1′,4′-olido)-[3′,4′:1,2]-6-fluoro-2-methyl-3-(p-methylsulfonylbenzylidene)-1S-indanyl-glutathione)”?
Answer: Growth Inhibition (HT-29 cells): + +; PDE Inhibition [4]: −

Question: For `CCCc1nn(C)c2c(=O)[nH]c(-c3cc(S(=O)(=O)N4CCN(C)CC4)ccc3OCC)nc12` [Sildenafil, reference compound], which “inhibition of activity of Peak A” value [6] is on record?
Answer: Its value is “inhibited activity of Peak A”.

Question: For `CC(=O)NC(CSC12CC(=O)OC1(C)/C(=C/c1ccc(S(C)(=O)=O)cc1)c1ccc(F)cc12)C(=O)O` (racemic) [D, rac-(E)-1-(butan-1′,4′-olido)-[3′,4′:1,2]-6-fluoro-2-methyl-3-(p-methylsulfonylbenzylidene)-1S-indanyl-N-acetylcysteine], which “% Inhibition at 100 μM (growth)” value (HT-29 cells) is on record?
Answer: The value was 78%.

Question: And the “Growth Inhibition” value (HT-29 cells)?
Answer: The value was “+ +”.

Question: What about the “% Inhibition at 100 μM (cyclooxygenase)” value (Cyclooxygenase (COX)) of the same compound?
Answer: The value was under 25%.

Question: For `CCCCCC[C@@H]([C@@H](C)O)n1cnc2c(N)ncnc21` (racemic) [EHNA], which “Fold induction at 100 μM (apoptosis)” value [7] is on record?
Answer: The value was under 2.0 fold.
